Data on 1 molecule can be found in patent publication US20040109896A1, “Aqueous suspension eyedrops and process for producing the same” (priority 2001, published 2004).

Molecules are shown by their SMILES.

The nature of data set [1]: Laser diffraction particle size distribution analysis of acyclovir fine crystals. Particulars: USP grade sterilized acyclovir fine crystals. Type of data set: physicochemical. The protocol:
USP grade, sterilized acyclovir was used as fine crystals of acyclovir without any processing. Through laser diffraction particle size distribution analysis, the crystals were determined to have an average particle size of 25.9 μm.

In data set [2] the test system is herpes virus. To be noted: Crumpaker et al., Antimicrob. Agents Chemother. 15, 642 (1979); cited from earlier work.

For `Nc1nc2c(ncn2COCCO)c(=O)[nH]1` [acyclovir, 9-[(2-hydroxyethoxy)methyl]guanine], in data set [1], the average particle size worked out at 25.9 μm. For the same molecule, the “ID50 (50% inhibition level) of acyclovir against herpes virus” value in data set [2] is “approximately 0.03 μg/mL”.
